Test system: angiotensin II-induced pressor responses
Assay: Test C: inhibition of angiotensin II-induced pressor responses in terminally-anaesthetised or conscious rats
Assay type: in vivo
Settings: iv, rat, i.v. administration
Description: The antagonism of one or more of the physiological actions of AII and, in particular, the antagonism of the interaction of AII with the receptors which mediate its effects on a target tissue, may be assessed using one or more of the following, routine laboratory procedures: Test C: This in vivo test involves using terminally-anaesthetised or conscious rats in which an arterial catheter has been implanted under anaesthesia for the measurement of changes in blood pressure. The AII antagonistic effects of the test compound following oral or parenteral administration, are assessed against angiotensin II-induced pressor responses. To ensure that the effect is specific, the effect of the test compound on vasopressin-induced pressor responses may also be determined in the same preparation.

## Cc1cc(NCc2ccc(-c3ccccc3-c3nnn[nH]3)cc2)c(I)c(C)n1.Cl [Example 1, 2,6-dimethyl-3-iodo-4-[(2'-(1H-tetrazol-5-yl)biphenyl-4-yl)methylamino]pyridine hydrochloride]
  ED50: 0.047 mg/kg

— patent US5236937A, “Pyridinyl compounds which are useful as angiotensin II antagonists” (Imperial Chemical Industries PLC, priority 1991, dated 1993)
